From PMC9246016 (Pharmaceutical Biology, 2022)
One block for each molecule: values may come before it.

Legend:
[1] = Pharmacokinetics of ROS after 10-day multiple-dose GLT in rats; type: in vivo, Sprague-Dawley rats; conditions: ROS 10 mg/kg oral; for AUC(0-t) / Cmax / MRT / Tmax / half-life: male, Sprague-Dawley, rat, plasma, po, 10 mg/kg
[2] = Pharmacokinetics of ROS with single-dose GLT in rats; conditions: for CL/F / AUC(0-t) / Cmax / MRT / Tmax: ROS 10 mg/kg oral; for AUC(0-t) / Cmax / MRT / Tmax / half-life: male, Sprague-Dawley, rat, plasma, po, 10 mg/kg; for AUC(0-t): AUC0-t; for half-life: t1/2, ROS 10 mg/kg oral; for extension of MRT vs control: ROS 10 mg/kg
[3] = target: T1, recombinant human CYP2C8 (RHCYP2C8) (Homo sapiens, UniProt P10632); assay: Inhibition of RHCYP2C8 yeast microsomes, probe substrate amodiaquine; conditions: for inhibitor intensity classification for CYP2C8: class by IC50, general rules (Testa 2007)
T1 sequence (P10632 1-490): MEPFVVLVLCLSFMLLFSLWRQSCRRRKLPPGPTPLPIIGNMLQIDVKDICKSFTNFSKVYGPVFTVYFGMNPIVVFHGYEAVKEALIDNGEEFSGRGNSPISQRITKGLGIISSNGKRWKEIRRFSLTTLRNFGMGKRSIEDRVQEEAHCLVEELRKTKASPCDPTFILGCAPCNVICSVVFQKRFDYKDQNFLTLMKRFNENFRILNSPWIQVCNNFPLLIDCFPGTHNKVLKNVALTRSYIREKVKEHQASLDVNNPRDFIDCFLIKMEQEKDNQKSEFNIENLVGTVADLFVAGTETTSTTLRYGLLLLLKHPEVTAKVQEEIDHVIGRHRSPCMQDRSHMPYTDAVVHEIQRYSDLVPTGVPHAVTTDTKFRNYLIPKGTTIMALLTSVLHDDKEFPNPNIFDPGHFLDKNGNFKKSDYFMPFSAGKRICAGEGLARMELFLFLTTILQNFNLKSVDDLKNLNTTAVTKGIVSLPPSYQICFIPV
Method: (§1) RHCYP2C8 and RHCYP2C9 yeast microsomes were extracted using the glass bead crushing method and differential centrifugation, with grinding 15 times by 0.5 g glass beads and centrifugation at 9,000 g for 20 min at 4 °C. The supernatant was then centrifuged at 100,000 g at 4 °C (BECKMAN COULTER Optima™ L-80 XP Ultracentrifuge) for 1 h, and the precipitation was RHCYP2C8 or RHCYP2C9 yeast microsome. Reconstituted with potassium phosphate buffer (pH 7.4), the microsome solution was collected and stored at −80 °C for subsequent examination. Protein concentrations of microsomes were determined using the Lowry method.
Amodiaquine and diclofenac are typical CYP2C8 and CYP2C9 probe substrates, respectively. […] The 0.4 mL incubation mixtures contained inhibitors (0–500 μmol/L), potassium phosphate buffer (pH 7.4) in common, and RHCYP2C8 (12.4 mg/mL) with amodiaquine or RHCYP2C9 (4.6 mg/mL) with diclofenac. […] The reactions were initiated by the addition of NADPH with pre-incubation 10 min in advance and carried out for 40 min.
(§2) The CYP2C8 sample treatment process was that incubation was terminated by adding 200 μL of methanol. Samples were centrifuged at 12,000 rpm for 10 min, and the supernatant was subjected to HPLC. The CYP2C9 sample treatment process was that each sample (100 μL) was spiked with 10 μL of carbamazepine (30 μg/mL). The mixture was then extracted with 500 μL ethyl acetate by vortexing for 3 min and centrifuged at 12,000 rpm for 10 min. […] The residue was dissolved in 100 μL methanol for HPLC analysis.

[4] = target: recombinant human CYP2C9 (RHCYP2C9) (Homo sapiens, UniProt P11712); assay: Inhibition of RHCYP2C9 yeast microsomes, probe substrate diclofenac; conditions: for inhibitor intensity classification for CYP2C9: class by IC50, general rules (Testa 2007)
Chain of recombinant human CYP2C9 (RHCYP2C9) (P11712 whole entry): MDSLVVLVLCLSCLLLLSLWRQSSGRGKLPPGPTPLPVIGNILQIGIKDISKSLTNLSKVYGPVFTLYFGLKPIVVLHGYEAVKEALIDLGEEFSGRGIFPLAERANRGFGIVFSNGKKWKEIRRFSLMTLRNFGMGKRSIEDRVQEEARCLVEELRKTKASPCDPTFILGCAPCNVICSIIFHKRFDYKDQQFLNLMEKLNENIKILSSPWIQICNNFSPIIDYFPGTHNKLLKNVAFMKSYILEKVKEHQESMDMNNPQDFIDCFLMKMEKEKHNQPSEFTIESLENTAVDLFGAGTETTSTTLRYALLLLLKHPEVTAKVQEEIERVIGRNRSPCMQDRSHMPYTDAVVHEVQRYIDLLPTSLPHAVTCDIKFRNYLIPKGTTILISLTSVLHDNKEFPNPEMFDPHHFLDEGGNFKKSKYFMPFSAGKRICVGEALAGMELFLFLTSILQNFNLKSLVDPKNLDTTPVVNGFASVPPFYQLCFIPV
Method: as §1
Amodiaquine and diclofenac are typical CYP2C8 and CYP2C9 probe substrates, respectively. […] The reactions were initiated by the addition of NADPH with pre-incubation 10 min in advance and carried out for 40 min.
as §2

[5] = test system: CYP2C8; parameters: method as in Unger and Frank [2004]; conditions: ref Unger and Frank [2004]; read-out: IC50 for CYP2C8 (previous finding); cited from earlier work
[6] = test system: CYP2C9 and CYP3A4; parameters: method as in He and Edeki [2004]; conditions: inhibitory effects appear negligible; ref He and Edeki [2004]; cited from earlier work
[7] = multiple-dose GLT 100 mg/kg for 10 days
[8] = multiple-dose GLT 200 mg/kg for 10 days

- CL/F ([1]; control (vehicle 10 days)): 13.92 ± 3.04 mL/h
- CL/F [1, 7]: 25.54 ± 9.02 mL/h
- CL/F [1, 8]: 30.00 ± 8.52 mL/h
- AUC(0-t) ([1]; control (vehicle 10 days)): 140 ± 45.5 µg·h/mL
- Cmax ([1]; control (vehicle 10 days)): 38700 ± 9730 ng/mL
- MRT ([1]; control (vehicle 10 days)): 3.27 ± 0.65 h
- Tmax ([1]; control (vehicle 10 days)): 0.79 ± 0.4 h
- half-life ([1]; control (vehicle 10 days)): 2.75 ± 0.7 h
- AUC(0-t) [1, 7]: 84.6 ± 39.9 µg·h/mL
- Cmax [1, 7]: 28500 ± 5560 ng/mL
- MRT [1, 7]: 2.95 ± 1.13 h
- Tmax [1, 7]: 0.54 ± 0.25 h
- half-life [1, 7]: 1.99 ± 0.44 h
- AUC(0-t) [1, 8]: 66.6 ± 15.9 µg·h/mL
- Cmax [1, 8]: 28400 ± 4640 ng/mL
- MRT [1, 8]: 2.13 ± 0.28 h
- Tmax [1, 8]: 0.37 ± 0.13 h
- half-life [1, 8]: 1.68 ± 0.35 h
- CL/F ([2]; control (vehicle), single dose): 16.46 ± 1.91 mL/h
- CL/F ([2]; single-dose GLT 100 mg/kg): 14.58 ± 2.12 mL/h
- CL/F ([2]; single-dose GLT 200 mg/kg): 13.97 ± 3.43 mL/h
- AUC(0-t) ([2]; control (vehicle), single dose): 117 ± 12.2 µg·h/mL
- AUC(0-t) ([2]; single-dose GLT 100 mg/kg): 130 ± 24.3 µg·h/mL
- AUC(0-t) ([2]; single-dose GLT 200 mg/kg): 139 ± 40.6 µg·h/mL
- Cmax ([2]; control (vehicle), single dose): 29100 ± 5980 ng/mL
- Cmax ([2]; single-dose GLT 100 mg/kg): 28800 ± 5860 ng/mL
- Cmax ([2]; single-dose GLT 200 mg/kg): 26000 ± 6990 ng/mL
- MRT ([2]; control (vehicle), single dose): 3.02 ± 0.28 h
- MRT ([2]; single-dose GLT 100 mg/kg): 3.66 ± 0.63 h
- MRT ([2]; single-dose GLT 200 mg/kg): 4.24 ± 1.04 h
- Tmax ([2]; control (vehicle), single dose): 0.9 ± 0.34 h
- Tmax ([2]; single-dose GLT 100 mg/kg): 1.01 ± 0.65 h
- Tmax ([2]; single-dose GLT 200 mg/kg): 0.8 ± 0.26 h
- half-life ([2]; control (vehicle), single dose): 2.14 ± 0.38 h
- half-life ([2]; single-dose GLT 100 mg/kg): 2.79 ± 0.37 h
- half-life ([2]; single-dose GLT 200 mg/kg): 3.26 ± 1.08 h
- extension of MRT vs control ([2]; single-dose GLT 100 mg/kg): 21%
- extension of MRT vs control ([2]; single-dose GLT 200 mg/kg): 40%
Molecule: CN(CCOc1ccc(CC2SC(=O)NC2=O)cc1)c1ccccn1 (centres unmarked) [ROS, Rosiglitazone]

Molecule: COc1cc(-c2oc3cc(O)cc(O)c3c(=O)c2O)ccc1O [isorhamnetin]
- IC50 [3]: 11.9 µM
- inhibitor intensity classification for CYP2C8 [3]: weak (weak inhibitors are over 10 μmol/L)
- IC50 [4]: 4.59 µM
- inhibitor intensity classification for CYP2C9 [4]: moderate (moderate inhibitors are between 1 and 10 μmol/L)

- IC50 [3]: 7.67 µM
- IC50 [4]: 7.57 µM
Molecule: O=c1c(O)c(-c2ccc(O)cc2)oc2cc(O)cc(O)c12 [kaempferol]
- inhibitor intensity classification for CYP2C8 [3]: moderate (moderate inhibitors are between 1 and 10 μmol/L)
- inhibitor intensity classification for CYP2C9 [4]: moderate (moderate inhibitors are between 1 and 10 μmol/L)

Molecule: O=c1c(O)c(-c2ccc(O)c(O)c2)oc2cc(O)cc(O)c12 [quercetin]
- inhibitor intensity classification for CYP2C8 [3]: moderate (moderate inhibitors are between 1 and 10 μmol/L)
- inhibitor intensity classification for CYP2C9 [4]: weak (weak inhibitors are over 10 μmol/L)

Molecule: ginkgolide B
- concentrations at which effects are pronounced [6]: greater than 100 μmol/L
